Laboratory results as given in patent US10508086B2 (CANCER RESEARCH TECHNOLOGY LIMITED, priority 2014, dated 2019).
pEC50, pIC50: −log10 of the molar value. Like-named read-outs stand apart in the source and are kept apart here.

Key:
Human Full Length PARG = Human Full Length PARG (Homo sapiens (Human), UniProt Q86W56); assay: PARG in vitro enzyme assay (TR-FRET); assay type: biochemical; conditions: read-out: PARG_EC50_ENZYME
Description: PARG In vitro assays were conducted in a total volume of 15 ul in a standard 384 well format. 5 ul of Human Full Length PARG (Produced internally by Astra Zeneca), used at a final reaction concentration of […], was added to 5 ul of Ribosylated PARP substrate (also produced internally by Astra Zeneca) at final reaction concentration of 4.5 nM in assay buffer (50 mM Tris pH7.4, 0.1 mg/ml BSA, 3 mM EDTA, 0.4 mM EGTA, 1 mM DTT, 0.01% Tween 20, 50 mM KCl). The reaction was incubated at room temperature for 10 minutes and then 5 ul detection reagent was added. Detection Reagent consists of 42 nM MAb Anti-6HIS XL665 (CisBio: 61 HISXLB) and 2.25 nM Streptavidin Europium Cryptate (CisBio: 610SAKLB), both at 3× working stock concentrations (final concentrations of 14 nM and 0.75 nM respectively), in a detection buffer of 50 mM Tris pH7.4, BSA at 0.1 mg/ml and KF at 100 mM. Following incubation at room temperature for 60 minutes in the dark, TR-FRET signal was measured at Ex 340 and Em 665 and Em 620. A ratio was calculated as Em665/EM620×104 for each well and used to calculate percent inhibition for test compounds.

PARG in HeLa cell line = PARG in HeLa cell line (Homo sapiens (Human), UniProt Q86W56); assay: PARG cell assay (nuclear PAR chains after MMS, immunofluorescence); assay type: cell-based
Chain of PARG in HeLa cell line (Q86W56 whole entry): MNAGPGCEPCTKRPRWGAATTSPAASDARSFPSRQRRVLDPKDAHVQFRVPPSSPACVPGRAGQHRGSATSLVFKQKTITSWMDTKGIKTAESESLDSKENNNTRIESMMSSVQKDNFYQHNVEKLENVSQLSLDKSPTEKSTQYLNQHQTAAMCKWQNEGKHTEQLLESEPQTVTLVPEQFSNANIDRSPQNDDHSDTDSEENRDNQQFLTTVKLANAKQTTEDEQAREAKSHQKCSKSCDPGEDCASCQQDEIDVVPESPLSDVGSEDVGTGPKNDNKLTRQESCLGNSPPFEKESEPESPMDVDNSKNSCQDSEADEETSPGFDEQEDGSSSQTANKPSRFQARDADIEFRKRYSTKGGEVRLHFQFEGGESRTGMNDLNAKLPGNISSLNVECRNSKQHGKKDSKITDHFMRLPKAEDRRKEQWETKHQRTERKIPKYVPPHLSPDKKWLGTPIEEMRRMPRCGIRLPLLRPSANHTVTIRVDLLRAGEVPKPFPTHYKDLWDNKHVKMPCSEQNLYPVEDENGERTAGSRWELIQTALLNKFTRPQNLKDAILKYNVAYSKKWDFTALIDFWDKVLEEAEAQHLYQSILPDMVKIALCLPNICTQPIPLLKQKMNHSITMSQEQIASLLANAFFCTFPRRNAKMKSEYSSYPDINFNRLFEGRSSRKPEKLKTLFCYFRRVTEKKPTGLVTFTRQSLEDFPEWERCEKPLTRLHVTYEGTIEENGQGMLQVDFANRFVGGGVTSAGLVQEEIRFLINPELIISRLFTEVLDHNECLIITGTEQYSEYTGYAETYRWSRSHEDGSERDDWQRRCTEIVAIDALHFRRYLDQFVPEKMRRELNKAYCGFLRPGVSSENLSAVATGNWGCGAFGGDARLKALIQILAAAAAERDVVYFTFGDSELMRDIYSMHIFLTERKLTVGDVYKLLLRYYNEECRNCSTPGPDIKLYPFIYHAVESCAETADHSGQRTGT
Description: This method is based on the detection of endogenous levels of poly (ADP) ribose chains present in the nucleus of HeLa cell line using indirect immunofluorescence. MMS stimulation increases PAR chains for up to 25 mins. After that point, PARG is active and breaks down the PAR chains, until by one hour after stimulation no PAR chains are detectable. Inhibition of PARG maintains PAR chains.
Briefly, following compound treatment and treatment with the DNA damaging agent methylmethanesulfonate (MMS), the cell monolayer is fixed, then permeabilised and incubated with a mouse monoclonal antibody raised against multimers of poly(ADP) ribose. After an overnight incubation, excess antibody is removed by washing and an Alexafluor 488-linked secondary antibody which recognises the mouse monoclonal is added together with a nuclear stain (Hoechst 33342). Images of the cells are then captured and analysed on a High Content Screening platform and the total intensity of the nuclear fluorescent signal at […] is quantified.
HeLa cells, seeded in 384-well plates, at 4000/well in 30 μL RPMI 1640 media, supplemented with 10% FBS and 2 mM Glutamax, were incubated overnight at 37° C., 5% CO2.
The following day, cells were dosed in quadruplicate with compound (10 point dose response) and incubated for 1 h at 37° C., 5% CO2.
At the end of the 1 h dosing period, MMS was added to duplicates at a final concentration of 50 μg/mL, for a further hour.
Media was tipped off and the cells fixed with 50 μL ice-cold 95% MetOH/PBS for 15 mins at −20° C. Following a PBS wash, 50 μL PBS/0.1% Triton was added to the cells for 20 mins. Following another PBS wash, anti-PAR antibody (Calbiochem AM80) was diluted 1:4000 in a buffer (PBS+0.5% FBS+0.05% Tween20) and added to the cells and incubated overnight at 4° C.
The following day, cells were washed three times with PBS and then incubated for 1 hr with secondary antibody (Alexa Fluor® 488 goat anti mouse IgG (H+L)) diluted 1:1000 and Hoechst diluted 1:5000 in buffer (5% FBS in PBS+0.05% Tween20).
Cells were washed three times with PBS and the plate sealed with a light-proof seal.
Images of the cells were captured on a ThermoFisher Celllnsight and the mean total intensity of spots fluorescent at 485 nm in the nucleus was reported.

[1] = HeLa cells, MMS 50 μg/mL, read-out: PARG Cell IC50 Geomean

Chain of Human Full Length PARG (Q86W56 whole entry): as above

SMILES | pEC50 (Human Full Length PARG) | pIC50 (PARG in HeLa cell line; [1]) | pIC50 (PARG in HeLa cell line)
Cc1cc(Cn2c(=O)n(-c3nnc(C)s3)c3cc(S(=O)(=O)NC4(C)CC4)ccc32)n(C)n1 [Example 84] | 6.44 | 6.57 | –
COc1ccc(Cn2c(=O)n(-c3nnc(C)s3)c3cc(S(=O)(=O)NC4(C)CC4)ccc32)cc1 [Example 86] | 6.39 | 6.56 | –
Cn1c(=O)n(-c2ncns2)c2cc(S(=O)(=O)NC3(C)CC3)ccc21 [Example 98] | 6.44 | 6.16 | –
Cc1nnc(-n2c(=O)n(Cc3sc(C)nc3C)c3ccc(S(=O)(=O)NC4(C)CC4)cc32)o1 [Example 99] | 6.69 | 6.47 | –
C#CCn1c(=O)n(-c2nnc(C)s2)c2cc(S(=O)(=O)NC3(C)CC3)ccc21 [Example 100] | 6.58 | 6.71 | –
Cc1nnc(-n2c(=O)n(Cc3ncco3)c3ccc(S(=O)(=O)NC4(C)CC4)cc32)s1 [Example 101] | 6.61 | 6.41 | –
Cc1ccc(Cn2c(=O)n(-c3nnc(C)s3)c3cc(S(=O)(=O)NC4(C)CC4)ccc32)o1 [Example 103] | 6.55 | 6.66 | –
Cc1ccc(Cn2c(=O)n(-c3nnc(C)s3)c3cc(S(=O)(=O)NC4(C)CC4)ccc32)s1 [Example 104] | 6.55 | 6.61 | –
COc1nsc(-n2c(=O)n(Cc3sc(C)nc3C)c3ccc(S(=O)(=O)NC4(C)CC4)cc32)n1 [Example 105] | 6.57 | 6.61 | –
Cc1cnc(-n2c(=O)n(Cc3sc(C)nc3C)c3ccc(S(=O)(=O)NC4(C)CC4)cc32)s1 [Example 107] | 7.07 | 6.80 | –
Cc1nc(C)c(Cn2c(=O)n(-c3nc(Br)ns3)c3cc(S(=O)(=O)NC4(C)CC4)ccc32)s1 [Example 108] | 7.16 | 7.17 | –
Cc1nc(C)c(Cn2c(=O)n(-c3nccs3)c3cc(S(=O)(=O)NC4(C)CC4)ccc32)s1 [Example 111] | 6.83 | 6.29 | –
CCOC(=O)n1c(=O)n(Cc2sc(C)nc2C)c2ccc(S(=O)(=O)NC3(C)CC3)cc21 [Example 112] | 6.85 | 6.07 | –
Cc1nnc(-n2c(=O)n(C)c3cc(F)c(S(=O)(=O)NC4(C)CC4)cc32)s1 [Example 116, 6-Fluoro-1-methyl-N-(1-methylcyclopropyl)-3-(5-methyl-1,3,4-thiadiazol-2-yl)-2-oxo-benzimidazole-5-sulfonamide] | 6.61 | 6.71 | –
CNC(=O)c1noc(Cn2c(=O)n(-c3nnc(C)o3)c3cc(S(=O)(=O)NC4(C)CC4)ccc32)n1 [Example 117] | 6.56 | 4.61 | –
Cc1nnc(-n2cc(C(=O)C3CC3)c3ccc(S(=O)(=O)NC4(C)CC4)cc32)s1 [Example 130, 3-(Cyclopropanecarbonyl)-N-(1-methylcyclopropyl)-1-(5-methyl-1,3,4-thiadiazol-2-yl) indole-6-sulfonamide] | 6.66 | 6.87 | –
Cc1nnc(-n2cc(C(=O)c3ccc(F)cc3)c3ccc(S(=O)(=O)NC4(C)CC4)cc32)s1 [Example 131, 3-(4-Fluorobenzoyl)-N-(1-methylcyclopropyl)-1-(5-methyl-1,3,4-thiadiazol-2-yl)indole-6-sulfonamide] | 6.58 | – | 6.64

SMILES | pEC50 (Human Full Length PARG) | pIC50 (PARG in HeLa cell line; [1]) | pIC50 (PARG in HeLa cell line)
Cc1nnc(-n2c(=O)n(CCCN(C)C)c3ccc(S(=O)(=O)NC4(C)CC4)cc32)s1 [Example 135] | 6.29 | 6.43 | –
Cc1nnc(-n2c(=O)n(CC3CCCCN3C)c3ccc(S(=O)(=O)NC4(C)CC4)cc32)s1 (stereo not shown) [Example 143] | 6.36 | 6.46 | –
COCCn1c(=O)n(-c2nnc(C)s2)c2cc(S(=O)(=O)NC3(C)CC3)ccc21 [Example 147] | 6.34 | 6.36 | –
COCCCn1c(=O)n(-c2nnc(C)s2)c2cc(S(=O)(=O)NC3(C)CC3)ccc21 [Example 148] | 6.43 | 6.62 | –
Cc1nnc(-n2c(=O)n(CCN3CCOCC3)c3ccc(S(=O)(=O)NC4(C)CC4)cc32)s1 [Example 152] | 6.56 | 6.71 | –
Cc1nnc(-n2c(=O)n(CCC(N)=O)c3ccc(S(=O)(=O)NC4(C)CC4)cc32)s1 [Example 154] | 6.21 | 5.04 | –
Cc1nnc(-n2c(=O)n(CC3CCCN3C)c3ccc(S(=O)(=O)NC4(C)CC4)cc32)s1 (stereo not shown) [Example 155] | 6.33 | 6.78 | –
Cc1nnc(-n2c(=O)n(C)c3ccc(S(=O)(=O)NC4(CF)CC4)cc32)s1 [Example 156, N-[1-(Fluoromethyl)cyclopropyl]-1-methyl-3-(5-methyl-1,3,4-thiadiazol-2-yl)-2-oxo-benzimidazole-5-sulfonamide] | 6.16 | 6.23 | –
Cc1nnc(-n2c(=O)[nH]c3ccc(S(=O)(=O)NC4(C#N)CC4)cc32)s1 [Example 157, N-(1-Cyanocyclopropyl)-3-(5-methyl-1,3,4-thiadiazol-2-yl)-2-oxo-1H-benzimidazole-5-sulfonamide] | 5.93 | 5.46 | –
CCn1c(=O)n(-c2nnc(C)s2)c2cc(S(=O)(=O)NC3(C#N)CC3)ccc21 [Example 158, N-(1-Cyanocyclopropyl)-1-ethyl-3-(5-methyl-1,3,4-thiadiazol-2-yl)-2-oxo-benzimidazole-5-sulfonamide] | 5.98 | 6.31 | –
CCn1c(=O)n(-c2nnc(C)s2)c2cc(S(=O)(=O)NC3(CF)CC3)ccc21 [Example 159, 1-Ethyl-N-[1-(fluoromethyl)cyclopropyl]-3-(5-methyl-1,3,4-thiadiazol-2-yl)-2-oxo-benzimidazole-5-sulfonamide] | 6.23 | 6.46 | –
COCCn1c(=O)n(-c2nnc(C)s2)c2cc(S(=O)(=O)NC3(CF)CC3)ccc21 [Example 160, N-[1-(Fluoromethyl)cyclopropyl]-1-(2-methoxyethyl)-3-(5-methyl-1,3,4-thiadiazol-2-yl)-2-oxo-benzimidazole-5-sulfonamide] | 6.21 | 6.34 | –
COCCn1c(=O)n(-c2nnc(C)s2)c2cc(S(=O)(=O)NC3(C#N)CC3)ccc21 [Example 161, N-(1-Cyanocyclopropyl)-1-(2-methoxyethyl)-3-(5-methyl-1,3,4-thiadiazol-2-yl)-2-oxo-benzimidazole-5-sulfonamide] | 6.21 | 6.31 | –
COCCn1c(=O)n(-c2nnc(C(F)F)s2)c2cc(S(=O)(=O)NC3(C#N)CC3)ccc21 [Example 162, N-(1-Cyanocyclopropyl)-3-[5-(difluoromethyl)-1,3,4-thiadiazol-2-yl]-1-(2-methoxyethyl)-2-oxo-benzimidazole-5-sulfonamide] | 6.59 | 6.75 | –
COCCn1c(=O)n(-c2nnc(C(F)F)s2)c2cc(S(=O)(=O)NC3(CF)CC3)ccc21 [Example 163, 3-[5-(Difluoromethyl)-1,3,4-thiadiazol-2-yl]-N-[1-(fluoromethyl)cyclopropyl]-1-(2-methoxyethyl)-2-oxo-benzimidazole-5-sulfonamide] | 7.05 | 6.98 | –
Cc1cc(Cn2c(=O)n(-c3nnc(C(F)F)s3)c3cc(S(=O)(=O)NC4(CF)CC4)ccc32)n(C)n1 [Example 164, 3-[5-(Difluoromethyl)-1,3,4-thiadiazol-2-yl]-1-[(2,5-dimethylpyrazol-3-yl)methyl]-N-[1-(fluoromethyl)cyclopropyl]-2-oxo-benzimidazole-5-sulfonamide] | 6.69 | 6.96 | –
Cc1nsc(-n2c(=O)n(C)c3ccc(S(=O)(=O)NC4(CF)CC4)cc32)n1 [Example 177] | – | 5.60 | –
